Reference: patent US4481200A, “α2 -Adrenoceptor antagonistic benzoquinolizines” (John Wyeth & Brother, Limited, priority 1982, dated 1984)

Columns and labels:
α2-adrenoceptor = molecular target: T1, α2-adrenoceptor (Rattus norvegicus, UniProt P22909); test: α2-adrenoceptor antagonistic activity on the rat field stimulated vas deferens preparation (clonidine as agonist); settings: antagonism of clonidine, 37°, 90 min after introduction of antagonist, Arunlakshana & Schild, read-out: pA2 (α2) (converted)
T1 construct: from tissue; host or cells: rat vas deferens
T1 sequence (P22909 1-465): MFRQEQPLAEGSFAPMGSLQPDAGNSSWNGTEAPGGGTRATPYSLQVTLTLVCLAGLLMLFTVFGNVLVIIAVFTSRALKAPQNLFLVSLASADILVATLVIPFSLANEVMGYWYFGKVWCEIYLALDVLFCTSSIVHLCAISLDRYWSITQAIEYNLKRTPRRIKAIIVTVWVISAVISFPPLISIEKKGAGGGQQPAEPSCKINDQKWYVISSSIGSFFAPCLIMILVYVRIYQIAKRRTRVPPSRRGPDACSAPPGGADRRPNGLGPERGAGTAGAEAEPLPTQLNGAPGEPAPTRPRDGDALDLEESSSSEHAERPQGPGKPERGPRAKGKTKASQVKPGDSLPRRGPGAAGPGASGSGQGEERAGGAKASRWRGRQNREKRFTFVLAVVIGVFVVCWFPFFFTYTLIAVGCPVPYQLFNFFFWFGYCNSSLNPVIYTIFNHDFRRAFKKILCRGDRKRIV
Description: The compounds of the invention were tested for α2 -adrenoceptor antagonistic activity on the rat field stimulated vas deferens preparation using a modification of the method of Drew, Eur. J. Pharmac., 1977, 42, 123-130. The procedure is described below.
Desheathed vasa deferentia from sexually mature rats were suspended in a 6 ml organ bath in Krebs solution at 37° and bubbled with 5% CO2 in oxygen. Platinum ring electrodes were positioned above and below the tissue for field stimulation, The stimulus parameters being 0.1 Hz 1 ms pulse width at supramaximal voltage. Twitch responses were recorded isotonically with a 0.5 g loading. Clonidine hydrochloride was used as the α-adrenoceptor agonist and cumulative concentration-response curves were constructed for the inhibition of twitch obtained with clonidine in the range 0.125 to 4 ng ml^-1. After washing out clonidine, the twitch response quickly recovered and an antagonist was then introduced into the Krebs reservoir. Clonidine concentration-response curves were repeated 90 min after introduction of the antagonist. The concentration of clonidine producing 50% inhibition of twitch before and after introduction of antagonist were obtained and the dose-ratio for clonidine was calculated. Various concentrations of the antagonists were used.
Chemother., 1959, 14, 48-58 and the values of pA2 and slope were calculated.

α1-adrenoceptor [1] = molecular target: T2, α1-adrenoceptor (Rattus norvegicus, UniProt P43140); test: α1 antagonistic activity on the isolated anococcygeus muscle of the rat (phenylephrine or methoxamine as agonist); settings: antagonism of phenylephrine or methoxamine, rat anococcygeus muscle, 37°, 30 min equilibration, 10^-6 to 10^-4 M; Arunlakshana & Schild; read-out: pA2 (α1) (converted)
T2 construct: One method involves assessing the activity on the isolated anococcygeus muscle of the rat; from tissue; host or cells: rat anococcygeus muscle
T2 sequence (P43140 1-466): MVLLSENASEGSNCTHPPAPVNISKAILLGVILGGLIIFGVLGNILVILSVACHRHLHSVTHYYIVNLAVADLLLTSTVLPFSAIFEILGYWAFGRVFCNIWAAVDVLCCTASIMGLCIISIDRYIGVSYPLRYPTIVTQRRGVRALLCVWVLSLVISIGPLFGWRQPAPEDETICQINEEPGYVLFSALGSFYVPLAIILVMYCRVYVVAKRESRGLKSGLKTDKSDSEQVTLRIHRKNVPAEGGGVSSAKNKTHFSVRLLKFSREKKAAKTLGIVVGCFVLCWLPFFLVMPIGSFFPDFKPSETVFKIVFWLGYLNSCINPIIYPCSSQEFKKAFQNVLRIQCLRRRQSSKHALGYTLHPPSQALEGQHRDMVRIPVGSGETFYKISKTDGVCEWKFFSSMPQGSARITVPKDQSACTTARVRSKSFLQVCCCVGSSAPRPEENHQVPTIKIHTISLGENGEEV
From the text: (§1) The compounds of the invention antagonise the α2 -adrenoceptors to a much greater extent than the α1 -adrenoceptors. The α1 antagonistic activity can be evaluated by a number of different methods. One method involves assessing the activity on the isolated anococcygeus muscle of the rat. The method is based on that of Gillespie, Br.J.Pharmac., 1972, 45, 404-416. In the procedure male rats (250-360 g) are killed by a blow on the head and bled. The two anococcygeus muscles are removed from their position in the midline of the pelvic cavity, where they arise from the upper coccygeal vertebrae. The muscles are suspended in 5 ml organ baths in Krebs solution containing 10^-4 M ascorbic acid, to prevent drug oxidation. The tissues are gassed with a 95% oxygen, 5% CO2 mixture and maintained at 37°. Longitudinal muscle contractions are recorded using isotonic transducers. Cumulative dose response curves are then obtained to phenylephrine or in some cases methoxamine, both agents being […] alpha adrenoceptor agonists. The concentration range of phenylephrine or methoxamine used is 0.02 to 0.8 μg.ml^-1. The agonist is then washed from the bath and the test drug added to the bathing medium at a concentration of 10^-6 M. After 30 min equilibration with the test drug a further agonist dose response curve is obtained. The washing, equilibration and agonists dosing procedures are then repeated using 10^-5 M and 10^-4 M solutions of the test drug. Estimates of the pA2 value for the test drug as an antagonist of phenylephrine or methoxamine were made from the agonist dose-ratios using the method of Arunlakshana & Schild, Br.J.Pharmac. Chemother., 1959, 14, 48-58.

α1-adrenoceptor [2] = test: as above; settings: antilog of (α2 pA2-α1 pA2)
From the text: as §1

Row | Structure (SMILES) | Kb (α2-adrenoceptor) [nM] | Kb (α1-adrenoceptor [1]) [nM] | α2/α1 selectivity (α1-adrenoceptor [2])
1 | CNS(=O)(=O)N(C)[C@@H]1CCN2CCc3ccccc3[C@@H]2C1 (relative stereo) [Example 1, N-Methyl-N-(1,3,4,6,7,11bα-hexahydro-2H-benzo[a]quinolizin-2β-yl)-N'-methylsulphamide] | 36.3 | 646 | 18
2 | CN(C)S(=O)(=O)N(C)[C@@H]1CCN2CCc3ccccc3[C@@H]2C1 (relative stereo) [Example 2, N,N,N'-Trimethyl-N'-[1,3,4,6,7,11bα-hexahydro-2H-benzo[a]quinolizin-2β-yl]sulphamide] | 39.8 | 1120 | 28
3 | CN(C)CCS(=O)(=O)N(C)[C@@H]1CCN2CCc3ccccc3[C@@H]2C1 (relative stereo) [Example 3, N-Methyl-N-(1,3,4,6,7,11bα-hexahydro-2H-benzo[a]quinolizin-2β-yl)-2-dimethylaminoethanesulphonamide] | 55 | 2510 | 46
4 | CC(C)NS(=O)(=O)N(C)[C@@H]1CCN2CCc3ccccc3[C@@H]2C1 (relative stereo) [Example 4, N-(i-Propyl)-N'-(1,3,4,6,7,11bα-hexahydro-2H-benzo[a]quinolizin-2β-yl)-N'-methylsulphamide] | 37.2 | 363 | 10
